The values that follow come from PMC7997411, “Discovery and Optimization of Selective Inhibitors of Meprin α (Part II)” (Pharmaceuticals, 2021).

Each structure is given as a SMILES string. Several values for one entry are separate records, joined by “and”; a condition that tells them apart may be missing. Equal entries are not always repeated. Where two headings read alike, the source gives them in different places.

One assay has as its target T1, MMP9 (Homo sapiens, UniProt P14780).
T1 construct: purchased R&D Systems 911-MP
The conditions noted are these: cited from earlier work.

Another assay has as its target T2, ADAM10 (Homo sapiens, UniProt O14672).
T2 construct: purchased R&D Systems 936-AD
T2 sequence (O14672 214-748): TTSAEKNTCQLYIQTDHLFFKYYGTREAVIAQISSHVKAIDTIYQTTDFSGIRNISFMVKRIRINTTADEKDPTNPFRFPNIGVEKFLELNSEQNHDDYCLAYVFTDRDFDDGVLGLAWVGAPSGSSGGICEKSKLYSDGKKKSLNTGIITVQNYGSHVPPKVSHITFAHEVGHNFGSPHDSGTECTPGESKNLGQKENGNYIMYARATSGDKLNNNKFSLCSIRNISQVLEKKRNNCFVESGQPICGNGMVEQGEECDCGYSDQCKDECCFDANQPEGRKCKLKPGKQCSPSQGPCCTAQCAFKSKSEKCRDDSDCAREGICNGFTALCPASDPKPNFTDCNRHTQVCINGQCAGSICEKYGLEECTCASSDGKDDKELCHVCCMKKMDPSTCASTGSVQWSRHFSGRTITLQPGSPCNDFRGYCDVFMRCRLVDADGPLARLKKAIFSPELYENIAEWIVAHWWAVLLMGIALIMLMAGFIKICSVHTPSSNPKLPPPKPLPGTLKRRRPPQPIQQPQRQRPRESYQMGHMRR
The conditions noted are these: cited from earlier work.

The next assay has as its target T3, MMP13 (Homo sapiens, UniProt P45452).
T3 construct: purchased R&D Systems 511-MM
The conditions noted are these: cited from earlier work.

The target in another assay is T4, MMP2 (Homo sapiens, UniProt P08253).
T4 construct: purchased R&D Systems 902-MP
T4 sequence (P08253 110-660): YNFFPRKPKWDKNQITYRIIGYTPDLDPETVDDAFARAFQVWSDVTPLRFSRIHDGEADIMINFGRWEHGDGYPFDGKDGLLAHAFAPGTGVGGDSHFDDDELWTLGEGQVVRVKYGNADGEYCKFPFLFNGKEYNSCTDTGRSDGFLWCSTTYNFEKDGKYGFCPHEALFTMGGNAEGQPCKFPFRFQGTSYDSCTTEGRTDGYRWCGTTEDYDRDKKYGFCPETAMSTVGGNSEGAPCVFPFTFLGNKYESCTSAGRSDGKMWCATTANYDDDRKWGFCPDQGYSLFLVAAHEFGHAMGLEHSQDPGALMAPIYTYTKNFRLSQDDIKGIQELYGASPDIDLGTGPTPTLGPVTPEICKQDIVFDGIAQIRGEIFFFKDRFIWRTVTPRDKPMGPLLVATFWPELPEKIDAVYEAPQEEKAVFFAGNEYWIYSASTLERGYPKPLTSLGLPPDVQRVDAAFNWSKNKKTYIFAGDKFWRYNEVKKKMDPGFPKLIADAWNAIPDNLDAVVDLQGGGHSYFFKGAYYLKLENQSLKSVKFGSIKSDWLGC
Conditions: cited from earlier work.

The subject of assay [1] is Meprin α. The conditions noted are these: cited from earlier work; for meprin α/β fold selectivity ratio: meprin α over meprin β ref 8.
In a further assay the target is T5, ADAM17 (Homo sapiens, UniProt P78536).
T5 construct: purchased R&D Systems 930-ADB
The conditions noted are these: cited from earlier work.

The next assay relates to Meprin β. Conditions: cited from earlier work.
The target of a further assay is T6, human meprin β (Homo sapiens, UniProt Q16820).
T6 construct: His-tag; made in house; host or cells: BTI-TN-5B1-4 insect cells (baculovirus, amplified in Sf9)
T6 sequence (Q16820 62-701): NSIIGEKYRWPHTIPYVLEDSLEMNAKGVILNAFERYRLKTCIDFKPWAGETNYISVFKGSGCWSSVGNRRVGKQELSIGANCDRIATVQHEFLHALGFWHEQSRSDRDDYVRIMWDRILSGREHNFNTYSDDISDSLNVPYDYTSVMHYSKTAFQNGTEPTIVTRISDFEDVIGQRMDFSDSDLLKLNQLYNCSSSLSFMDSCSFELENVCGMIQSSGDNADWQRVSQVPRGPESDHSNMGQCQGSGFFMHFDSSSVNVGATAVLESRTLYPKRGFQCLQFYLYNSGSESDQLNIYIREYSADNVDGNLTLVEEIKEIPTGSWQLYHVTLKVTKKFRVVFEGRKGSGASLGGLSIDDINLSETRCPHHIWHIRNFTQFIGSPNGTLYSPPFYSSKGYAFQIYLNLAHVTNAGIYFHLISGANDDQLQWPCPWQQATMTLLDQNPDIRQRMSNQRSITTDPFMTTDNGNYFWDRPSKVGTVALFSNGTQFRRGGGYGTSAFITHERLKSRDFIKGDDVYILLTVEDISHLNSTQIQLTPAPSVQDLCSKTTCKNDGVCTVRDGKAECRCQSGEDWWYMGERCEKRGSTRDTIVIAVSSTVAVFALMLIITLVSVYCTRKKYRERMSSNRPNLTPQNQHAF
Put plainly: Meprin β assay in a 384-well plate (fluorogenic substrate Mca-EDEDED-K(Dnp)). It is filed as biochemical. The conditions noted are these: triplicate, ± SD. The protocol:
(§1) Recombinant human meprin α and meprin β were expressed using the Bac-to-Bac expression system (Gibco Life Technologies, Paisley, UK) as described before. Media and supplements were obtained from Gibco Life Technologies. Recombinant Baculoviruses were amplified in adherently growing Spodoptera frugiperda (Sf)9 insect cells at 27 °C in Grace’s insect medium supplemented with 10% fetal bovine serum, 50 units/mL penicillin, and 50 μg/mL streptomycin. Protein expression was performed in 500 mL suspension cultures of BTI-TN-5B1-4 insect cells growing in Express Five SFM supplemented with 4 mM glutamine, 50 units/mL penicillin, and 50 μg/mL streptomycin in Fernbach-flasks using a Multitron orbital shaker (INFORS AG, Bottmingen, Switzerland). Cells were infected at a density of 2 × 10^6 cells/mL with an amplified viral stock at a MOI of ~10. […] Meprins were activated by trypsin, which was removed afterwards by affinity chromatography using a column containing immobilized chicken ovomucoid, a trypsin inhibitor.
(§2) Both assays followed the same general protocol. […] After 30 min incubation at RT, the reactions were started by addition of 5 µL of 2× solutions of substrates (20 µM, meprin α Mca-YVADAPK-K(Dnp), and for meprin β Mca-EDEDED-K(Dnp)).

Assay [2] has as its target T7, meprin α (Homo sapiens, UniProt Q16819).
T7 construct: Strep-tag; made in house; host or cells: BTI-TN-5B1-4 insect cells (baculovirus, amplified in Sf9)
T7 sequence (Q16819 66-746): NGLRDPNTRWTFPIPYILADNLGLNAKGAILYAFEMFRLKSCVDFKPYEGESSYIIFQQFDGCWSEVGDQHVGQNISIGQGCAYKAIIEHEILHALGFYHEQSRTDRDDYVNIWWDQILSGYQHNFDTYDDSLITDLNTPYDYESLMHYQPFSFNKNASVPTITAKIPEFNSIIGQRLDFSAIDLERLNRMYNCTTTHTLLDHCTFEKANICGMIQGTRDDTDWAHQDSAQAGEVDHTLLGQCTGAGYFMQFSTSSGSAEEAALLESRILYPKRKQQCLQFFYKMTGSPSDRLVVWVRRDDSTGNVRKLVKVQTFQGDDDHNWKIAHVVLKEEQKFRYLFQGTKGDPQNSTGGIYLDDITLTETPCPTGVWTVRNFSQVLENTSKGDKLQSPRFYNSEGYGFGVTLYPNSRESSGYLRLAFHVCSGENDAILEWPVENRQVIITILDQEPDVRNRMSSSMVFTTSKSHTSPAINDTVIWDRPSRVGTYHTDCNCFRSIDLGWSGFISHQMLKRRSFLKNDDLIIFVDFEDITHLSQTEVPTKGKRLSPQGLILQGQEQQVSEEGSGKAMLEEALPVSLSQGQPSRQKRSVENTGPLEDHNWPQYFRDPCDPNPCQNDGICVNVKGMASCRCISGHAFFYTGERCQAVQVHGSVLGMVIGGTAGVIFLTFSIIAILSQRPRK
Put plainly: Meprin α assay in a 384-well plate (fluorogenic substrate Mca-YVADAPK-K(Dnp)). It counts as biochemical. The protocol:
as §1, §2

In assay [3] the test system is MMP-2, MMP-3, MMP-8, MMP-9, MMP-10, MMP-14, ADAM10, and ADAM17. Put plainly: Selectivity panel of related metzincins. It is filed as biochemical. The conditions noted are these: meprin α vs MMP-2, MMP-3, MMP-8, MMP-9, MMP-10, MMP-14, ADAM10, ADAM17. The method, then:
Both assays followed the same general protocol. 2.5 µL of 2× enzyme solution (20 nM) in assay buffer (10 mM HEPES, 0.001% Brij-35, pH 7.5) were added to solid bottom black 384 plates (Greiner, cat# 789075). Next, test compounds and pharmacological controls were added to corresponding wells using a 384-pin tool device (V&P Scientific, San Diego). After 30 min incubation at RT, the reactions were started by addition of 2.5 µL of 2× solutions of substrate (R&D Systems cat#: ES010, Mca-KPLGL-Dpa-AR-NH2, 20 µM). Reactions were incubated at RT for 2 h, after which the fluorescence was measured using a Perkin Elmer Viewlux multimode microplate imager (λexcitation = 324 nm, λemission = 393 nm). All compounds were tested in 10-point, 1:3 serial dilutions dose-response format starting with highest concentration of 100 µM. IC50 values were determined using non-linear regression analysis using the GraphPad Prism 8.0 suite of programs.
All assays followed the same general protocol. […] Reactions were incubated at RT for 1 h, after which the fluorescence was measured using the Synergy H4 multimode microplate reader (Biotek Instruments) (λexcitation = 324 nm, λemission = 390 nm). […] IC50 values were determined using non-linear regression analysis using the GraphPad Prism 8.0 suite of programs.

The mark [4] stands for this setting: single value given, at 10 μM ref 11.

For orientation: IC50 means the point on the concentration scale where inhibition reaches its midpoint.

T1 sequence (P14780 94-707): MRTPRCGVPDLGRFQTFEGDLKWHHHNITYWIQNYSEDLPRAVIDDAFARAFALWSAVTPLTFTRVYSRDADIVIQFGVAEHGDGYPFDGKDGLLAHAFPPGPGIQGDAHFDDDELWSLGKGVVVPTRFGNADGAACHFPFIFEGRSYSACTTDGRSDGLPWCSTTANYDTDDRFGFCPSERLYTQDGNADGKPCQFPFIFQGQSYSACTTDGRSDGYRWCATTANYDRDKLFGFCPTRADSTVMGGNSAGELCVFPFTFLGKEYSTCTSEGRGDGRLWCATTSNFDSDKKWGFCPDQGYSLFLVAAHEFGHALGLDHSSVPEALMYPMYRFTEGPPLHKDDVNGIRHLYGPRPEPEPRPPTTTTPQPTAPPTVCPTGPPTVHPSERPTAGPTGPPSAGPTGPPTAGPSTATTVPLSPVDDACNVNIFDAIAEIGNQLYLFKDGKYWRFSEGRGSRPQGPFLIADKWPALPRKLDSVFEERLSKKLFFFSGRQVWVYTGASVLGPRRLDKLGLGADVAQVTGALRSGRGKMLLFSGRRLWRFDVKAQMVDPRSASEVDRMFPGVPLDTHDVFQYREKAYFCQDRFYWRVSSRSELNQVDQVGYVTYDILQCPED
T5 sequence (P78536 215-824): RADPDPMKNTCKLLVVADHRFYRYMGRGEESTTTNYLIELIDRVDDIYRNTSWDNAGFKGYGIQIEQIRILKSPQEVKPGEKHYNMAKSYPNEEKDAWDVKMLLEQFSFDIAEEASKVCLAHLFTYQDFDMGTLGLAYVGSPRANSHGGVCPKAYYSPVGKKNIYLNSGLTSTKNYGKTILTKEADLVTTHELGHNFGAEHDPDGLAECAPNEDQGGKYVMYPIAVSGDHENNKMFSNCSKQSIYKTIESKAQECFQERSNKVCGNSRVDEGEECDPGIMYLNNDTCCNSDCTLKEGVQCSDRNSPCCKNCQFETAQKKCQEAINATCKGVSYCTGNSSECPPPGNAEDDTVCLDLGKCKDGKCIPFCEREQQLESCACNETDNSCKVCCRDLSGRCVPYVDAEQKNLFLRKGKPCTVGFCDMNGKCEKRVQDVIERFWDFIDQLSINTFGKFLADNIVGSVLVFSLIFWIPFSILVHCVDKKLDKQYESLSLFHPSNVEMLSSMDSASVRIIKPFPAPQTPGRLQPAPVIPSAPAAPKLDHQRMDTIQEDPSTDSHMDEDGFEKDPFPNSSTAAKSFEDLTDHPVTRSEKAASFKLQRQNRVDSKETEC

For the molecule `O=C(Cc1c(-c2ccccc2)noc1-c1ccccc1)NO` [2c], the “MMP9 % activity remaining” value at MMP9 (setting [4]) is listed as 86%. Moreover, on ADAM10 (setting [4]), the “ADAM10 % activity remaining” value is recorded as 80%. On MMP13 (setting [4]), the “MMP13 % activity remaining” value is on record as 80%. The “MMP2 % activity remaining” value on MMP2 (setting [4]) is given as 87%. Besides, the IC50 is 0.004 ± 0.001 µM in the assay with Meprin α [1] and 0.813 ± 0.001 µM in the assay with Meprin β. In addition, the “ADAM17 % activity remaining” value at ADAM17 (setting [4]) is 62%.
`O=C(Cc1c(-c2ccccc2)n[nH]c1-c1ccccc1)NO` [2e]: the “MMP9 % activity remaining” value on MMP9 (setting [4]) is 81%. Moreover, the “ADAM10 % activity remaining” value on ADAM10 (setting [4]) is recorded as 73%. For the same molecule, the “MMP13 % activity remaining” value on MMP13 (setting [4]) was 75%. Besides, the “MMP2 % activity remaining” value on MMP2 (setting [4]) was 104%. Also, the IC50 in the assay on Meprin α [1] was 0.003 ± 0.001 µM; in the assay with Meprin β it was 0.199 ± 0.001 µM. Moreover, the “ADAM17 % activity remaining” value at ADAM17 (setting [4]) is listed as 61%.
For `O=C(CN(Cc1ccc2c(c1)OCO2)Cc1ccc2c(c1)OCO2)NO` [10d], the “MMP9 % activity remaining” value on MMP9 (at 10 μM (top) ref 8) is reported as 91%; at MMP9 (at 200 μM (bottom) ref 8), 61%. For the same molecule, the “ADAM10 % activity remaining” value is on record as 86% at ADAM10 (at 10 μM (top) ref 8) and 61% on ADAM10 (at 200 μM (bottom) ref 8). Besides, the “MMP13 % activity remaining” value at MMP13 (at 10 μM (top) ref 8) is recorded as 86%; at MMP13 (at 200 μM (bottom) ref 8), 55%. In addition, the “MMP2 % activity remaining” value is recorded as 95% at MMP2 (at 10 μM (top) ref 8) and 26% at MMP2 (at 200 μM (bottom) ref 8). Further, the IC50 is 0.16 ± 0.001 µM in the assay on Meprin α [1] and 2.95 ± 0.35 µM with Meprin β. Besides, the “meprin α/β fold selectivity ratio” value with Meprin α [1] was 18 fold. Besides, the “ADAM17 % activity remaining” value on ADAM17 (at 10 μM (top) ref 8) was 86%; at ADAM17 (at 200 μM (bottom) ref 8), 57%.
On to `O=C(CN(Cc1ccc2c(c1)OCCO2)Cc1ccc2c(c1)OCCO2)NO` [10e], for which the “MMP9 % activity remaining” value on MMP9 (at 10 μM (top) ref 8) is 91%; at MMP9 (at 200 μM (bottom) ref 8), 21%. For the same molecule, the entries for the “ADAM10 % activity remaining” value at ADAM10 (at 10 μM (top) ref 8) and on ADAM10 (at 200 μM (bottom) ref 8) were 80% and 56%, respectively. Also, the “MMP13 % activity remaining” value on MMP13 (at 10 μM (top) ref 8) is reported as 98%; at MMP13 (at 200 μM (bottom) ref 8), 47%. Besides, the “MMP2 % activity remaining” value at MMP2 (at 10 μM (top) ref 8) is reported as 94%; at MMP2 (at 200 μM (bottom) ref 8), 65%. The IC50 in the assay with Meprin α [1] is 0.4 ± 0.03 µM; with Meprin β, 7.59 ± 0.01 µM. In addition, the “meprin α/β fold selectivity ratio” value in the assay with Meprin α [1] is listed as 19 fold. Moreover, the “ADAM17 % activity remaining” value on ADAM17 (at 10 μM (top) ref 8) was 80%; at ADAM17 (at 200 μM (bottom) ref 8), 41%.
As to `COc1ccc(-n2c(CSc3ncccn3)nnc2SCC(=O)NO)cc1` [SR19855, N-hydroxy-2-((4-(4-methoxyphenyl)-5-((pyrimidin-2-ylthio)methyl)-4H-1,2,4-triazol-3-yl)thio)acetamide], the IC50 on human meprin β was found to be 17 ± 3 µM. Moreover, at meprin α [2] (Figure 1), the “meprin α/β selectivity (in words)” value is “moderate meprin α/β selectivity”. Further, the “meprin α/β fold selectivity (ratio of IC50 values)” value at meprin α [2] (meprin α over meprin β) is ~ 13 fold and 13 fold. At meprin α [2] (triplicate, ± SD), inhibition was half-maximal at 1.3 ± 0.1 µM (IC50) and the “Meprin α IC50” value is on record as “low-micromolar”. Also, the “selectivity over a larger panel of metzincins” value in [3] was “at least 10 fold”.
